According to patent publication US9050266B2, “Phenol derivatives and pharmaceutical or cosmetic use thereof” (GALDERMA RESEARCH & DEVELOPMENT, priority 2009, dated 2015):

What was measured:
[1] = target: T1, receptors of AR type (androgen receptor) (Homo sapiens, UniProt P10275); assay: AR transactivation test in the PALM (PC3 Androgen receptor Luciferse MMTV) cell line, cross curves against methyltrienolone; assay type: cell-based; settings: cross curves vs reference agonist methyltrienolone, read-out: Kdapp (apparent dissociation constant)
T1 construct: expressed in transfected cells; host or cells: PALM cell line (PC3 stably transfected with PMMTV-neo-Luc and pSG5puro-AR)
T1 sequence (P10275 1-920): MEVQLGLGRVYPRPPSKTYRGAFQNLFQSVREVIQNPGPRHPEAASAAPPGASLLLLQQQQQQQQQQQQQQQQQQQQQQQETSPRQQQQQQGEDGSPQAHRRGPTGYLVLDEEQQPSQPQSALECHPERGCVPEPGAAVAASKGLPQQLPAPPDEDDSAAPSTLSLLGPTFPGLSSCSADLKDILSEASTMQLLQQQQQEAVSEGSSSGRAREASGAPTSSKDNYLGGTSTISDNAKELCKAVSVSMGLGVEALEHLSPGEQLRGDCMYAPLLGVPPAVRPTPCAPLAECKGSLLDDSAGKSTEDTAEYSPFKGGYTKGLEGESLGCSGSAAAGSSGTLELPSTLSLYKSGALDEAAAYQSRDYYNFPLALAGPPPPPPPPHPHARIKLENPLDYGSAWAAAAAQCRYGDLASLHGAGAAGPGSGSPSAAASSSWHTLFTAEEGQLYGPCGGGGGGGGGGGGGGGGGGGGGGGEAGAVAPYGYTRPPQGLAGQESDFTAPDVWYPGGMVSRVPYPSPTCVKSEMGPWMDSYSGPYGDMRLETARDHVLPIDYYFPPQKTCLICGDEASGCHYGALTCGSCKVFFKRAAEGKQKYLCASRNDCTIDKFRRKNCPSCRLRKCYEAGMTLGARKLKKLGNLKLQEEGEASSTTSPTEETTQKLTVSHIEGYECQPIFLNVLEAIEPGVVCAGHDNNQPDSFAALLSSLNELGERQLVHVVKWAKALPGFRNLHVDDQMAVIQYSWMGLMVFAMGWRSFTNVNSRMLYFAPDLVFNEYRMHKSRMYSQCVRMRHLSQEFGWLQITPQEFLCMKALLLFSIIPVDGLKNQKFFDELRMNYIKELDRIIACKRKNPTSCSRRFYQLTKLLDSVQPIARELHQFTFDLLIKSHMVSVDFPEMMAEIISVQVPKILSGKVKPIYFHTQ
Procedure: The compounds according to the invention show inhibitory properties on receptors of AR type. This AR receptor-inhibiting activity is measured in a transactivation test through the KdR (resting), KdA (active) and Kdapp (apparent) dissociation constants according to the method set out in J. Molecular Biology (1965), 12(1), 88-118, Monod J. et al.
The expression “AR-type receptor inhibitor” means, according to the invention, any compound which has a Kdapp dissociation constant of less than or equal to 1 μM, and a KdR/KdA ratio ≦10, in a transactivation test.
The transactivation test is carried out in the PALM (PC3 Androgen receptor Luciferse MMTV) cell line which is a stable transfectant containing the PMMTV-neo-Luc (reporter gene) and pSG5puro-AR plasmids.
In this study, the affinity of each product for the 2 receptor states (KdR and KdA) is determined, as is an apparent Kd (KdApp). This constant is a result of the 2 Kd, but also depends on the initial equilibrium of the receptor between the active state and the resting state (L0) and on its expression level. It is determined by means of the following formula: 1/KdApp=(L0/(1+L0))×(1/KdR)+(1/(1+L0))×(1/KdA)
To determine these constants, “cross curves” of the test product against a reference agonist, methyltrienolone, are produced in 96-well plates. The test product is used at 10 concentrations and the reference agonist at 7 concentrations.

Row | Kd [1] [nM] | melting point [°C] | SMILES
1 | 40 | 103 | COc1cccc(NCc2ccccc2O)n1 [Example 1, 2-[(6-Methoxypyridin-2-ylamino)methyl]phenol]
2 |  | 168 | Oc1ccccc1CNc1cncc(Br)n1 [Example 13, 2-[(6-Bromopyrazin-2-ylamino)methyl]phenol]
3 | 1000 |  | Cc1cc(Cl)nc(NCc2ccccc2O)c1 [Example 18, 2-[(6-chloro-4-methyl-pyridin-2-ylamino)-methyl]-phenol]
4 | 8 | 158 | COc1cncc(NCc2ccccc2O)n1 [Example 19, 2-[(6-Methoxypyrazin-2-ylamino)methyl]phenol]
5 |  | 161 | COc1nccc(NCc2ccccc2O)n1 [Example 20, 2-[(2-Methoxypyrimidin-4-ylamino)methyl]phenol]

The next lines start with the compound.

Row | SMILES | Kd [1] [nM] | melting point [°C]
6 | Oc1ccccc1CNc1cccc(Br)n1 [Example 2, 2-[(6-bromo-pyridin-2-ylamino)-methyl]-phenol] | 2 | 
7 | N#Cc1cccc(NCc2ccccc2O)n1 [Example 4, 6-(2-hydroxy-benzyl-amino)-pyridine-2-carbonitrile] | 200 | 
8 | CSc1cccc(NCc2ccccc2O)n1 [Example 22, 2-[(6-Methylsulphanylpyridin-2-ylamino)methyl]phenol] |  | 61
9 | C[S+]([O-])c1cccc(NCc2ccccc2O)n1 (centres unmarked) [Example 23, 2-[(6-Methanesulphinylpyridin-2-ylamino)methyl]phenol] |  | 133
